Laboratory results published in publication PMC5114172 (Journal of applied toxicology : JAT, 2016).
Read-outs that look alike come from different tables or passages of the source.

Experiments:
MD-PBMCs = assay: IL-1β secretion; format: cell-based, human
[1] = tested on: highly purified human NKs; settings: NK cells, ref Brown and Whalen, 2015, cited from earlier work
monocyte-depleted PBMCs = settings: MD-PBMCs, ref Brown and Whalen, 2015, cited from earlier work

SMILES: CC(C)(C)c1ccc(S(=O)(=O)/C=C/C#N)cc1 [BAY 11-7085, reference compound]
- Interleukin 1 beta secreted (MD-PBMCs; donor F244, 24 h, BAY 11-7085 alone (0 DBT)): 836 ± 8 pg/mL
- Interleukin 1 beta secreted (MD-PBMCs; donor F245, 24 h, BAY 11-7085 alone (0 DBT)): 536 ± 51 pg/mL
- Interleukin 1 beta secreted (MD-PBMCs; donor F333, 24 h, BAY 11-7085 alone (0 DBT)): 2039 ± 62 pg/mL
- Interleukin 1 beta secreted (MD-PBMCs; donor F334, 24 h, BAY 11-7085 alone (0 DBT)): 703 ± 70 pg/mL
- effect on baseline IL-1β secretion (MD-PBMCs; inhibitor alone): varying effects

SMILES: CC(=O)N[C@@H](Cc1ccc(O)cc1)C(=O)N[C@H](C(=O)N[C@@H](C)C(=O)N[C@@H](CC(=O)O)C(=O)CCl)C(C)C [Caspase-1 Inhibitor II, reference compound]
- effect on baseline IL-1β production (MD-PBMCs; 50 μM, cells from each donor, p<0.05): significantly decreased
- Interleukin 1 beta secreted (MD-PBMCs; donor F240, 24 h, Caspase-1 inhibitor II 50 μM alone (0 DBT)): 237 ± 19 pg/mL
- Interleukin 1 beta secreted (MD-PBMCs; donor F242, 24 h, Caspase-1 inhibitor II 50 μM alone (0 DBT)): 460 ± 15 pg/mL
- Interleukin 1 beta secreted (MD-PBMCs; donor F244, 24 h, Caspase-1 inhibitor II 50 μM alone (0 DBT)): 233 ± 11 pg/mL
- Interleukin 1 beta secreted (MD-PBMCs; donor F245, 24 h, Caspase-1 inhibitor II 50 μM alone (0 DBT)): 150 ± 8 pg/mL
- Interleukin 1 beta secreted (MD-PBMCs; donor F254, 24 h, Caspase-1 inhibitor II 50 μM alone (0 DBT)): 39 ± 4 pg/mL

SMILES: Oc1ccc(-c2nc(-c3ccncc3)c(-c3ccc(F)cc3)[nH]2)cc1 [SB202190, reference compound]
- effect on baseline secretion (MD-PBMCs; 3 of the 4 donors, in 1 donor it greatly increased secretion): significantly decreased
- Interleukin 1 beta secreted (MD-PBMCs; donor F247, 24 h, SB202190 alone (0 DBT)): 1613 ± 141 pg/mL
- Interleukin 1 beta secreted (MD-PBMCs; donor F262, 24 h, SB202190 alone (0 DBT)): 149 ± 41 pg/mL
- Interleukin 1 beta secreted (MD-PBMCs; donor F372, 24 h, SB202190 alone (0 DBT)): 36 ± 3 pg/mL
- Interleukin 1 beta secreted (MD-PBMCs; donor F385, 24 h, SB202190 alone (0 DBT)): 357 ± 61 pg/mL

SMILES: CCC[CH2][Sn]([CH2]CCC)[CH2]CCC [TBT, tributyltin]
- fold increase in IL-1β secretion ([1]; donor KB169, 50 nM TBT): 7.7 fold
- fold increase in IL-1β secretion ([1]; donor KB169, 100 nM TBT): 6.3 fold
- fold increase in IL-1β secretion (monocyte-depleted PBMCs; donor F142, 24 h, 50 nM TBT): 2.1 fold
- fold increase in IL-1β secretion (monocyte-depleted PBMCs; donor F142, 24 h, 100 nM TBT): 1.8 fold
- fold increase in IL-1β secretion (monocyte-depleted PBMCs; donor F145, 24 h, 50 nM TBT): 1.8 fold
- fold increase in IL-1β secretion (monocyte-depleted PBMCs; donor F145, 24 h, 100 nM TBT): 1.5 fold
- fold increase in IL-1β secretion (monocyte-depleted PBMCs; third common donor (F152), 24 h, 50 nM TBT): 11 fold

SMILES: N#CC(=C(/N)Sc1ccccc1N)/C(C#N)=C(/N)Sc1ccccc1N [U0126, reference compound]
- Interleukin 1 beta secreted (MD-PBMCs; donor F240, 24 h, U0126 50 μM alone (0 DBT)): 1756 ± 54 pg/mL
- Interleukin 1 beta secreted (MD-PBMCs; donor F242, 24 h, U0126 50 μM alone (0 DBT)): 479 ± 29 pg/mL
- Interleukin 1 beta secreted (MD-PBMCs; donor F244, 24 h, U0126 50 μM alone (0 DBT)): 119 ± 28 pg/mL
- Interleukin 1 beta secreted (MD-PBMCs; donor F245, 24 h, U0126 50 μM alone (0 DBT)): 255 ± 25 pg/mL
